Data: patent publication US20250145607A1, “Modulators of CAMKK2 as Ligand Directed Degraders” (Celgene Corporation, priority 2021, published 2025)

molecular target: T1, Enhanced ProLabel (ePL)-Tagged CAMKK2 (Homo sapiens, UniProt Q96RR4); assay: Degradation of stably expressed ePL-tagged CAMKK2 in 293T cells (InCELL Hunter luminescence, 24 h); type: cell-based; settings: minimum % protein remaining; ePL-CAMKK2 293T cells, 24 h incubation
T1 construct: expressed in transfected cells
Experimental: Cells were dispensed into 384 well plates pre-spotted with serial diluted test compounds. After 24 h incubation, degradation was terminated by the addition of DiscoverX InCELL Hunter Detection reagent.
Assay plates were incubated at 37° C. with 5% CO2 for 24 hours. Plates were kept at room temperature for 30 min, after which 25 μL of the InCELL Hunter Detection Reagent Working Solution was added (catalog number 96-0002, DiscoverX, Fremont, CA). After plates were incubated at room temperature for 30 min, protected from light, luminescence was read on a PHERAstar reader (BMG LABTECH, Cary, N.C.). Data was normalized and fit using Activity Base (IDBS, Alameda, Calif.) as described below.
A Four Parameter Logistic Model (Sigmoidal Dose-Response Model, equation 1) was used to determine the compound's EC50 and degradation Ymin.
where C is CAMKK2 degradation potency EC50, D is the […], A is the lower limit reported as Ymin. Ymin and EC50 were used to characterize compound-mediated CAMKK2 degradation efficiency.

T1 sequence (Q96RR4 whole entry): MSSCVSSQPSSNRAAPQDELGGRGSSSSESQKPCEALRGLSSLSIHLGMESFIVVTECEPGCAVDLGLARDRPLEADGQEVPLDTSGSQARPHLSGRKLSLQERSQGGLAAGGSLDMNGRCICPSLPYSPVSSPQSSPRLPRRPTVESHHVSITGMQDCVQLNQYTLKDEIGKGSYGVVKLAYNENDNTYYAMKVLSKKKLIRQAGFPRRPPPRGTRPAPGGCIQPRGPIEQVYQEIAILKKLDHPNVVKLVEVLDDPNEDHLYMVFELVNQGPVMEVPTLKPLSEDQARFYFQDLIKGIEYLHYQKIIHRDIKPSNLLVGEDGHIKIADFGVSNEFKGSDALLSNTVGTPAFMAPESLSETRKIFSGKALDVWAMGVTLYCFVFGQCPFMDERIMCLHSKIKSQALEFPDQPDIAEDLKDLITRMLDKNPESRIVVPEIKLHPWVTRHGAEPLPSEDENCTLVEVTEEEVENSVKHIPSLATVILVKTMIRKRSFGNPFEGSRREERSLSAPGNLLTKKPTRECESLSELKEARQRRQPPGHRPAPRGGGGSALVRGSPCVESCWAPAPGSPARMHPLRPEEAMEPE

Row | SMILES | (ePL) HEK293 24 h CAMKK2 Ymin(%)
1 | Cc1ncsc1-c1ccc(CNC(=O)[C@@H]2C[C@@H](O)CN2C(=O)[C@@H](NC(=O)CCCCCCCCCCOc2ccc3c(-c4ccc(C(=O)O)c(C5CCCC5)c4)ncnc3c2)C(C)(C)C)cc1 (racemic) [Compound 2, 2-cyclopentyl-4-[7-[11-oxo-11-[[rac-(1S)-2,2-dimethyl-1-[rac-(2S,4R)-4-hydroxy-2-[[4-(4-methylthiazol-5-yl)phenyl]methylcarbamoyl]pyrrolidine-1-carbonyl]propyl]amino]undecoxy]quinazolin-4-yl]benzoic acid] | 37
2 | Cc1ncsc1-c1ccc(CNC(=O)[C@@H]2C[C@@H](O)CN2C(=O)[C@@H](NC(=O)CCCCCCOc2ccc3c(-c4ccc(C(=O)O)c(C5CCCC5)c4)ncnc3c2)C(C)(C)C)cc1 (racemic) [Compound 6, 2-cyclopentyl-4-[7-[7-oxo-7-[[rac-(1S)-2,2-dimethyl-1-[rac-(2S,4R)-4-hydroxy-2-[[4-(4-methylthiazol-5-yl)phenyl]methylcarbamoyl]pyrrolidine-1-carbonyl]propyl]amino]heptoxy]quinazolin-4-yl]benzoic acid] | 42
3 | Cc1ncsc1-c1ccc(CNC(=O)[C@@H]2C[C@@H](O)CN2C(=O)[C@@H](NC(=O)CCCCCCCOc2ccc3c(-c4ccc(C(=O)O)c(C5CCCC5)c4)ncnc3c2)C(C)(C)C)cc1 [Compound 5] | 32

Continued, values first:

Row | (ePL) HEK293 24 h CAMKK2 Ymin(%) | SMILES
4 | 43 | Cc1ncsc1-c1ccc(CNC(=O)[C@@H]2C[C@@H](O)CN2C(=O)[C@@H](NC(=O)CCCCCCCCCCCOc2ccc3c(-c4ccc(C(=O)O)c(C5CCCC5)c4)ncnc3c2)C(C)(C)C)cc1 [Compound 1, 2-cyclopentyl-4-[7-[12-[[(1S)-1-[(2S,4R)-4-hydroxy-2-[[4-(4-methylthiazol-5-yl)phenyl]methylcarbamoyl]pyrrolidine-1-carbonyl]-2,2-dimethyl-propyl]amino]-12-oxo-dodecoxy]quinazolin-4-yl]benzoic acid]
5 | 19 | Cc1ncsc1-c1ccc(CNC(=O)[C@@H]2C[C@@H](O)CN2C(=O)[C@@H](NC(=O)CCCCCCCCOc2ccc3c(-c4ccc(C(=O)O)c(C5CCCC5)c4)ncnc3c2)C(C)(C)C)cc1 [Compound 4, 2-cyclopentyl-4-[7-[9-[[(1S)-1-[(2S,4R)-4-hydroxy-2-[[4-(4-methylthiazol-5-yl)phenyl]methylcarbamoyl]pyrrolidine-1-carbonyl]-2,2-dimethyl-propyl]amino]-9-oxo-nonoxy]quinazolin-4-yl]benzoic acid]
